Measured values: the kinase profiling compilation of Christmann-Franck et al. (2016)

What was measured:
Assay in all cases: radiometric filter-binding kinase assay, Kinase HotSpot
Details in all cases: compound 0.5 µM; ATP 10 µM
ABL2 (human) = ABL2 (human) (UniProt P42684)
ACVRL1 (human) = ACVRL1 (human) (UniProt P37023)
AKT1 (human) = AKT1 (human) (UniProt P31749)
AURKB (human) = AURKB (human) (UniProt Q96GD4)
BRSK2 (human) = BRSK2 (human) (UniProt Q8IWQ3)
CDK1 CCNA2 (human) = CDK1 CCNA2 (human) (UniProt P06493+P20248)
CDK2 CCNA2 (human) = CDK2 CCNA2 (human) (UniProt P24941+P20248)
CDK4 CCND1 (human) = CDK4 CCND1 (human) (UniProt P24385+P11802)
CHEK2 (human) = CHEK2 (human) (UniProt O96017)
CSK (human) = CSK (human) (UniProt P41240)
CSNK1E (human) = CSNK1E (human) (UniProt P49674)
CSNK1G2 (human) = CSNK1G2 (human) (UniProt P78368)
CSNK2A2 (human) = CSNK2A2 (human) (UniProt P19784)
EPHA2 (human) = EPHA2 (human) (UniProt P29317)
EPHB1 (human) = EPHB1 (human) (UniProt P54762)
FLT3 (human) = FLT3 (human) (UniProt P36888)
FRK (human) = FRK (human) (UniProt P42685)
Chain of FRK (human) (P42685 whole entry, looked up): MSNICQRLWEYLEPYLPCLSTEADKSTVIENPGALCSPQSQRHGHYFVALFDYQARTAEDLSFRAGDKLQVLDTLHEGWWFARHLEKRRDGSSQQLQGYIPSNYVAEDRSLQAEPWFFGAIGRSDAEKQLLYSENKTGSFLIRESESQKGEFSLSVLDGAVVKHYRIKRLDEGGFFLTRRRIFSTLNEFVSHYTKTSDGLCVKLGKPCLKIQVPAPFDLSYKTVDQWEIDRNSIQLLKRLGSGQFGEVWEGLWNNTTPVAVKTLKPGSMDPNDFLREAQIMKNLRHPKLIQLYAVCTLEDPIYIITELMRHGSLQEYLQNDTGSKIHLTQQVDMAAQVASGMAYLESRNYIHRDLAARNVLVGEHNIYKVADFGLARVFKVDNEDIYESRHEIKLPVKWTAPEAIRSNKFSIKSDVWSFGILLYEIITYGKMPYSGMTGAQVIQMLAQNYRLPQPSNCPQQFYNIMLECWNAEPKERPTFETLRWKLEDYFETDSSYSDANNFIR

GRK6 (human) = GRK6 (human) (UniProt P43250)
Chain of GRK6 (human) (P43250 whole entry, looked up): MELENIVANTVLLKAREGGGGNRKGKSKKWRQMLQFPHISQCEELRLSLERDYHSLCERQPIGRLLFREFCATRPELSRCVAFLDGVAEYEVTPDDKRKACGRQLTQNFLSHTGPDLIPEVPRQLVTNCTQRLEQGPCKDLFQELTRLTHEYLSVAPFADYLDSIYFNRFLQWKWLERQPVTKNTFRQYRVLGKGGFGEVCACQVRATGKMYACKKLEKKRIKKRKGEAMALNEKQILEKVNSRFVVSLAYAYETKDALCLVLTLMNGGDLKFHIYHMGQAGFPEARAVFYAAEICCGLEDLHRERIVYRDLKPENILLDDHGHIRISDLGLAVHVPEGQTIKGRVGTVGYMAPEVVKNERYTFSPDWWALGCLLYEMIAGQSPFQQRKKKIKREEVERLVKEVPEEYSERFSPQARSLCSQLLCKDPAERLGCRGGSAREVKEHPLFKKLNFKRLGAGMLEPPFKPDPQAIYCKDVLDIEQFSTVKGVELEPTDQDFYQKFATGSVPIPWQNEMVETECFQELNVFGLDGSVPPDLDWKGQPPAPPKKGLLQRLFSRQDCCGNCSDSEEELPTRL

GSG2 (human) = GSG2 (human) (UniProt Q8TF76)
Chain of GSG2 (human) (Q8TF76 whole entry, looked up): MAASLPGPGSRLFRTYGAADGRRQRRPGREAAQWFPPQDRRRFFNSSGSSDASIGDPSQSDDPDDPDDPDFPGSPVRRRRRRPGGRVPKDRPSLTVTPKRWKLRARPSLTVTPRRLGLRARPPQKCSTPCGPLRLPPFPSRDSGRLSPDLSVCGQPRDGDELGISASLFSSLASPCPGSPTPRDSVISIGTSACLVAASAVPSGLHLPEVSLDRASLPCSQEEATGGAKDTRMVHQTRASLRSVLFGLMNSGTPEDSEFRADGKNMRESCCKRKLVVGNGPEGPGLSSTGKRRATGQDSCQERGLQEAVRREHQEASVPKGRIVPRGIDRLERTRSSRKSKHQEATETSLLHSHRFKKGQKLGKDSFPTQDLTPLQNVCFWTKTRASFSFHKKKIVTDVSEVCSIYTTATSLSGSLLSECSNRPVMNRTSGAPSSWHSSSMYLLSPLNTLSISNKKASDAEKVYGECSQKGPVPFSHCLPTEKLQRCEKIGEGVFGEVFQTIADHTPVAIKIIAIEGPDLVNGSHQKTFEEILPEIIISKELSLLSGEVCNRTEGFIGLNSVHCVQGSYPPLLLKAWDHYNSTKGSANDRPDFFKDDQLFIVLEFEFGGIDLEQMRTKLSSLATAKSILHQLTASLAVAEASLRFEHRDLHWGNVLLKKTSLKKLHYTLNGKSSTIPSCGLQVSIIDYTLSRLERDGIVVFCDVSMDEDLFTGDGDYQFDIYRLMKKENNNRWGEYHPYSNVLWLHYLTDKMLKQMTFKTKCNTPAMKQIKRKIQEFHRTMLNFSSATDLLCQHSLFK

HIPK4 (human) = HIPK4 (human) (UniProt Q8NE63)
IGF1R (human) = IGF1R (human) (UniProt P08069)
KIT (human) = KIT (human) (UniProt P10721)
Chain of KIT (human) (P10721 whole entry, looked up): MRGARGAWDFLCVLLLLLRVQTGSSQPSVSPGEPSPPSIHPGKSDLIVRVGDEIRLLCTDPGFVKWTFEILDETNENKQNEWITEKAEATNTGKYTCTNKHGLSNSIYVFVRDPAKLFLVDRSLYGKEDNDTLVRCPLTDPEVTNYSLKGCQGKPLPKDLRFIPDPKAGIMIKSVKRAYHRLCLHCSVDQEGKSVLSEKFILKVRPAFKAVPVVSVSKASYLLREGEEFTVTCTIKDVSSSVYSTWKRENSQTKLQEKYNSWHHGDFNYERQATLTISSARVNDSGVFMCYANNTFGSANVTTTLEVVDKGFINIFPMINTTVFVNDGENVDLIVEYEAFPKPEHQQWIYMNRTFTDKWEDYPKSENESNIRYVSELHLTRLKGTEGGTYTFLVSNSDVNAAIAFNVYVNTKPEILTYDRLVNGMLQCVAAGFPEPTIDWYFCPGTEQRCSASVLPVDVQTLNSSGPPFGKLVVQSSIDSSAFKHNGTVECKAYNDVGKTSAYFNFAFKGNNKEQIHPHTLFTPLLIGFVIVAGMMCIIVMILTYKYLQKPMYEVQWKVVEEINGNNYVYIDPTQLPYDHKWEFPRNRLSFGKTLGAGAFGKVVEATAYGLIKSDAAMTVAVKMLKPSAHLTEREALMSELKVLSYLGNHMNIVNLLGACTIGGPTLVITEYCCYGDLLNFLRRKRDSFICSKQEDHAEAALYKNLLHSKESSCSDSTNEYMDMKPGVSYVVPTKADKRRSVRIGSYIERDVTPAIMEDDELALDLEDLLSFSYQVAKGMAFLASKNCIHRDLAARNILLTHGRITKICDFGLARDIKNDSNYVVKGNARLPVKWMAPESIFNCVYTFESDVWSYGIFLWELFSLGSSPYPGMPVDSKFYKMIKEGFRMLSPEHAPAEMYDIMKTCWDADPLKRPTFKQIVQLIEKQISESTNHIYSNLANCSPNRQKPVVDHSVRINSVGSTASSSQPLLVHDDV

LCK (human) = LCK (human) (UniProt P06239)
MAP4K2 (human) = MAP4K2 (human) (UniProt Q12851)
MAPKAPK2 (human) = MAPKAPK2 (human) (UniProt P49137)
MARK1 (human) = MARK1 (human) (UniProt Q9P0L2)
MARK3 (human) = MARK3 (human) (UniProt P27448)
MINK1 (human) = MINK1 (human) (UniProt Q8N4C8)
MKNK2 (human) = MKNK2 (human) (UniProt Q9HBH9)
NEK4 (human) = NEK4 (human) (UniProt P51957)
Chain of NEK4 (human) (P51957 whole entry, looked up): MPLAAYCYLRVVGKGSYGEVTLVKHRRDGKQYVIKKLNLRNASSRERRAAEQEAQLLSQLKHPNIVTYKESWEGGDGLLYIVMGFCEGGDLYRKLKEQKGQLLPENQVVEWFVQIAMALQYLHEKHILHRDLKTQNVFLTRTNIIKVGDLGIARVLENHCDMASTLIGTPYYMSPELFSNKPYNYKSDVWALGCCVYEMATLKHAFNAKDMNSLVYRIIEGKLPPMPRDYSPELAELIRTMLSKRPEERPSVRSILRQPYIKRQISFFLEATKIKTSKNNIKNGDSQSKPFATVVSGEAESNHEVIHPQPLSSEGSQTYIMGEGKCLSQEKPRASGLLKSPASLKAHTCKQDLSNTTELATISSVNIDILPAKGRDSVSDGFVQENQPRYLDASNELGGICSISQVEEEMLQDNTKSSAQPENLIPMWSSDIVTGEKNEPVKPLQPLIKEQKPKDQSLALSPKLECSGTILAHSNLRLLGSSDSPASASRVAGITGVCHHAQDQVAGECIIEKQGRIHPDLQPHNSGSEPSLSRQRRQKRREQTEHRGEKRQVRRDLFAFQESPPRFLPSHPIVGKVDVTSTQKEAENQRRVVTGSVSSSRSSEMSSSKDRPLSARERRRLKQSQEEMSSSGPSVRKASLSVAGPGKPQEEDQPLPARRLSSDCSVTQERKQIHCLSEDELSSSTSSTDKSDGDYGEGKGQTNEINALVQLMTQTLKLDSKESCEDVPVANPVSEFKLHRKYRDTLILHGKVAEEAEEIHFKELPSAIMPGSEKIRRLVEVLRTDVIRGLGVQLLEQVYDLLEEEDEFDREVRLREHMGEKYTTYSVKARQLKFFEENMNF

NTRK2 (human) = NTRK2 (human) (UniProt Q16620)
NUAK2 (human) = NUAK2 (human) (UniProt Q9H093)
OXSR1 (human) = OXSR1 (human) (UniProt O95747)
PIM1 (human) = PIM1 (human) (UniProt P11309)
PIM3 (human) = PIM3 (human) (UniProt Q86V86)
PRKCB1 (human) = PRKCB1 (human) (UniProt P05771)
PRKD1 (human) = PRKD1 (human) (UniProt Q15139)
STK17A (human) = STK17A (human) (UniProt Q9UEE5)
STK39 (human) = STK39 (human) (UniProt Q9UEW8)
TAOK3 (human) = TAOK3 (human) (UniProt Q9H2K8)
[1] = molecular target: TYK2 JH1 catalytic (human) (UniProt P29597)

Chain of BRSK2 (human) (Q8IWQ3 whole entry, looked up): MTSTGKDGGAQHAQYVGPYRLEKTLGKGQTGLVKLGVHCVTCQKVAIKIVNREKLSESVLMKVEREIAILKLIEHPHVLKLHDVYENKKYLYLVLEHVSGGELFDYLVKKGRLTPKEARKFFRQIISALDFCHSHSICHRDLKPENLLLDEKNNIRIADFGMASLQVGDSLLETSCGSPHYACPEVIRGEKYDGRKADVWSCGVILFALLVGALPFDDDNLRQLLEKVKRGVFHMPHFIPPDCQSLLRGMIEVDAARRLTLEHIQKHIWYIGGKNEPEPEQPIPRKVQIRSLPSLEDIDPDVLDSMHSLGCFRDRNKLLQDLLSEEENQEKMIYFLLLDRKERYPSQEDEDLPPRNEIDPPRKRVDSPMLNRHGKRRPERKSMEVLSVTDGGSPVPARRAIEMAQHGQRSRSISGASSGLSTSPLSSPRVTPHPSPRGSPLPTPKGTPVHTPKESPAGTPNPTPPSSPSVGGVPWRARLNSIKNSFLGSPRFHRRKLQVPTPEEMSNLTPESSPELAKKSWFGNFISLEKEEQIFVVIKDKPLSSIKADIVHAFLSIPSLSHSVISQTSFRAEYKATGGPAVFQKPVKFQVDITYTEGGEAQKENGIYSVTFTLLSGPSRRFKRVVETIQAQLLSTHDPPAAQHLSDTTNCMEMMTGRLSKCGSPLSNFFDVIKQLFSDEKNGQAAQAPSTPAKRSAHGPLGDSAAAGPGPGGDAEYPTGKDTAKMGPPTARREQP
Chain of AKT1 (human) (P31749 whole entry, looked up): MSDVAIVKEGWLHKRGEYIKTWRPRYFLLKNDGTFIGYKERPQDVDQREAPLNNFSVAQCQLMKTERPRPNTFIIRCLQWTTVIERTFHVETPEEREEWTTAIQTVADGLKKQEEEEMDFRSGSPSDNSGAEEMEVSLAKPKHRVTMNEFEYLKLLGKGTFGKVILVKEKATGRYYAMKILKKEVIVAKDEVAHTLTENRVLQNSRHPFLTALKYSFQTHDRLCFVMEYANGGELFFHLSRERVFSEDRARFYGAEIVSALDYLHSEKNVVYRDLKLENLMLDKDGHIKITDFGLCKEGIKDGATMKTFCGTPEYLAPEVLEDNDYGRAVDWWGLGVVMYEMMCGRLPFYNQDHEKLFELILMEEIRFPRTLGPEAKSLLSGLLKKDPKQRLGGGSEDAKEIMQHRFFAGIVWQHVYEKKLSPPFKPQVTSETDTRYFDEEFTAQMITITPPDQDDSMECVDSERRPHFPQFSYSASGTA

Structure (SMILES): COc1ccc(CNC(=O)Nc2ncc([N+](=O)[O-])s2)cc1
- residual activity (ABL2 (human)): 97.9%
- residual activity (ACVRL1 (human)): 106%
- residual activity (AKT1 (human)): 102%
- residual activity (AURKB (human)): 97.1%
- residual activity (BRSK2 (human)): 93.1%
- residual activity (CDK1 CCNA2 (human)): 93.4%
- residual activity (CDK2 CCNA2 (human)): 93.3%
- residual activity (CDK4 CCND1 (human)): 97.3%
- residual activity (CHEK2 (human)): 99.2%
- residual activity (CSK (human)): 102%
- residual activity (CSNK1E (human)): 102%
- residual activity (CSNK1G2 (human)): 100%
- residual activity (CSNK2A2 (human)): 92.9%
- residual activity (EPHA2 (human)): 100%
- residual activity (EPHB1 (human)): 102%
- residual activity (FLT3 (human)): 98.9%
- residual activity (FRK (human)): 97.2%
- residual activity (GRK6 (human)): 99.6%
- residual activity (GSG2 (human)): 90%
- residual activity (HIPK4 (human)): 103%
- residual activity (IGF1R (human)): 101%
- residual activity (KIT (human)): 103%
- residual activity (LCK (human)): 101%
- residual activity (MAP4K2 (human)): 113%
- residual activity (MAPKAPK2 (human)): 112%
- residual activity (MARK1 (human)): 106%
- residual activity (MARK3 (human)): 105%
- residual activity (MINK1 (human)): 90.5%
- residual activity (MKNK2 (human)): 95.7%
- residual activity (NEK4 (human)): 91%
- residual activity (NTRK2 (human)): 85.6%
- residual activity (NUAK2 (human)): 89.9%
- residual activity (OXSR1 (human)): 95.9%
- residual activity (PIM1 (human)): 104%
- residual activity (PIM3 (human)): 108%
- residual activity (PRKCB1 (human)): 103%
- residual activity (PRKD1 (human)): 104%
- residual activity (STK17A (human)): 91.6%
- residual activity (STK39 (human)): 96.4%
- residual activity (TAOK3 (human)): 98.5%
- residual activity [1]: 108%

Structure (SMILES): O=C1Cc2c([nH]c3ccc(Br)cc23)-c2ccccc2N1
- residual activity (ABL2 (human)): 84.9%
- residual activity (ACVRL1 (human)): 99%
- residual activity (AKT1 (human)): 99.9%
- residual activity (AURKB (human)): 84.3%
- residual activity (BRSK2 (human)): 62.7%
- residual activity (CDK1 CCNA2 (human)): 88.5%
- residual activity (CDK2 CCNA2 (human)): 37.4%
- residual activity (CDK4 CCND1 (human)): 84%
- residual activity (CHEK2 (human)): 59%
- residual activity (CSK (human)): 88%
- residual activity (CSNK1E (human)): 103%
- residual activity (CSNK1G2 (human)): 102%
- residual activity (CSNK2A2 (human)): 74.6%
- residual activity (EPHA2 (human)): 98.3%
- residual activity (EPHB1 (human)): 93.5%
- residual activity (FLT3 (human)): 47.7%
- residual activity (FRK (human)): 97.4%
- residual activity (GRK6 (human)): 105%
- residual activity (GSG2 (human)): 89.1%
- residual activity (HIPK4 (human)): 105%
- residual activity (IGF1R (human)): 103%
- residual activity (KIT (human)): 90.3%
- residual activity (MAP4K2 (human)): 20.1%
- residual activity (MAPKAPK2 (human)): 101%
- residual activity (MARK1 (human)): 88.3%
- residual activity (MARK3 (human)): 76.8%
- residual activity (MINK1 (human)): 29.6%
- residual activity (MKNK2 (human)): 102%
- residual activity (NEK4 (human)): 98.9%
- residual activity (NTRK2 (human)): 95%
- residual activity (NUAK2 (human)): 71.1%
- residual activity (OXSR1 (human)): 107%
- residual activity (PIM1 (human)): 96.8%
- residual activity (PIM3 (human)): 84.6%
- residual activity (PRKCB1 (human)): 93.1%
- residual activity (PRKD1 (human)): 101%
- residual activity (STK17A (human)): 102%
- residual activity (STK39 (human)): 90.1%
- residual activity (TAOK3 (human)): 82.8%
- residual activity [1]: 81.7%
